Measurements as given in patent US9296746B2, “Heterocyclic compound” (TAKEDA PHARMACEUTICAL COMPANY LIMITED, priority 2012, dated 2016).

Assays:
[1] = test system: APP transgenic mouse (Tg2576); assay: Novel object recognition test using an APP transgenic mouse (Tg2576); assay type: in vivo, Tg2576 mice; conditions: 3 mg/mL suspension at 10 mL/kg orally once a day for 6 weeks
Method: Animals used were 6-week-old Tg2576 mice and their wild-type mice (10 mice/group). A test compound was suspended in a 0.5% aqueous methyl cellulose [133-14255 WAKO] solution (3 mg/mL). The body weight of the mice was measured, and the solution was forcibly administered orally and repeatedly at 10 mL/kg once a day for 6 weeks. Then, a novel object recognition test was performed as follows. On the day before acquisition trial, the mice kept in the same cage were put in an observation box in which the illuminance was set to 300 lx, and habituated for 30 min. After the habituation, a compound was orally administered. On the next day, the mice were put, as an acquisition trial, in an observation box in which two same objects were placed, and the number and duration of contacts to the objects were measured for 5 min under 300 lx. A compound was orally administered after the measurement. The day after the acquisition trial, the one object was replaced with a novel object, and the number and duration of contacts to each of the object were measured for 5 min. A metal cylinder and ceramic triangular pyramid were used in this test. A control group (test compound-untreated group) and a control group in wild-type mice were used for comparison. […]

[2] = molecular target: T1, human CH24H (Homo sapiens, UniProt Q9Y6A2); assay: Measurement of CH24H inhibitory activity (24-HC produced from [14C] cholesterol by human CH24H lysate); assay type: biochemical; conditions: test compound 1 μM, [14C] cholesterol 15 μM, 37° C., 5 hr, read-out: Inhibitory Rate (%) in 1 μM
T1 construct: Using Full-Length Mammalian Gene Collection No. 4819975 (Invitrogen) as a template; made in house; host or cells: FreeStyle 293-F cells (transient transfection); cell lysate supernatant, not purified
T1 sequence (Q9Y6A2 whole entry): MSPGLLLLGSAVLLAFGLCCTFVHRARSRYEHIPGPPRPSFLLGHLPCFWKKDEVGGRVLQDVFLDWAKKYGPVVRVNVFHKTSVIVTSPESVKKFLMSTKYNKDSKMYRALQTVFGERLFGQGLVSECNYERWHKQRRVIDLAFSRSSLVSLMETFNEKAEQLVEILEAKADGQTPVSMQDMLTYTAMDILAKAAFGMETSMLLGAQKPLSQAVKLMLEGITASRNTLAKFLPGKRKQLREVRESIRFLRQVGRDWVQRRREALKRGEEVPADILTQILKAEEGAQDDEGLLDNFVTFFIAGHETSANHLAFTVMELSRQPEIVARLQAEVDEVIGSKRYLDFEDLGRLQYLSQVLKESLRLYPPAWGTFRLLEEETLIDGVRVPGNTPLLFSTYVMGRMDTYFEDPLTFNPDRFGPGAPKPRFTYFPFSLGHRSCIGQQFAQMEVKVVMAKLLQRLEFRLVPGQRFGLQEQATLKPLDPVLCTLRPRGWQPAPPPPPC
Method: The expression of human CH24H was performed using FreeStyle 293 Expression System (Invitrogen). According to the manual attached to FreeStyle 293 Expression System and using the plasmid DNA for human CH24H expression (pcDNA3.1(+)/hCH24H) constructed in Experimental Example 1, a transient expression using FreeStyle 293-F cell was performed. After transfection, the cells were cultured at 37° C., 8% CO2 with shaking at 125 rpm for 2 days. The cells were collected by centrifugation, and suspended in a suspension buffer (100 mM potassium phosphate (pH 7.4), 0.1 mM EDTA, 1 mM DTT, 20% Glycerol). The suspended product was disrupted by a polytron homogenizer (manufactured by Kinematica), and centrifuged at 9000×g for 10 min, and the supernatant was collected. The collected supernatant was cryopreserved (−80° C.) as a human CH24H lysate standard product.
For the measurement of CH24H inhibitory activity, using the human CH24H lysate prepared in Experimental Example 2, the amount of 24-HC produced from cholesterol by catalytic activity of CH24H was measured in the presence of a test compound, and compared with that measured in the absence of the test compound. That is, a test compound solution at various concentrations was mixed with a reaction buffer (50 mM potassium phosphate containing 0.1% BSA and Complete, EDTA-free, pH 7.4) and human CH24H lysate. Then, [^14C] cholesterol (53 mCi/mmol specific activity, 15 μM) was added, and CH24H reaction was performed at 37° C. for 5 hr. After completion of the reaction, a quenching solution consisting of chloroform/methanol/distilled water (2:2:1 v/v) was added, and the resulting 24-HC was extracted by shaking. The extract was applied to silica gel thin layer chromatography (ethyl acetate:toluene=4:6), and the obtained ^14C-24HC fraction was measured with BAS2500 (Fujifilm Corporation).
The inhibitory rate (%) was calculated from the ratio of radioactivity in the presence of a test compound relative to the radioactivity in the absence of the test compound.

SMILES | exploration Rate (%) of Novel Object, duration of contacts [1] [%] | exploration Rate (%) of Novel Object, number of contacts [1] [%] | inhibition at 1 µM [2] [%]
O=C(c1cnc2c(-c3cnco3)cc(C(F)(F)F)cn12)N1C2CCC1COC2 [Example 85, 3-oxa-8-azabicyclo[3.2.1]oct-8-yl(8-(1,3-oxazol-5-yl)-6-(trifluoromethyl)imidazo[1,2-a]pyridin-3-yl)methanone] | 61.8 | 54.4 | 88
O=C(c1cnc2c(-c3cnco3)cc(C(F)(F)F)cn12)N1C2COCC1COC2 [Example 176, 3,7-dioxa-9-azabicyclo[3.3.1]non-9-yl(8-(1,3-oxazol-5-yl)-6-(trifluoromethyl)imidazo[1,2-a]pyridin-3-yl)methanone] | – | – | 94
CC(=O)c1cc(-c2cnco2)c2ncc(C(=O)N3C[C@@H]4C[C@H]3CO4)n2c1 [Example 155, 1-(3-((1S,4S)-2-oxa-5-azabicyclo[2.2.1]hept-5-ylcarbonyl)-8-(1,3-oxazol-5-yl)imidazo[1,2-a]pyridin-6-yl)ethanone] | – | – | 84
